Active and inactive are the calls of the source. No cut-off for these calls is given here.
Experiments:
MV4-11 [1] = experiment: Induction of apoptosis in human MV4-11 cells assessed as early apoptotic cells at 1 nM incubated for 48 hrs by Annexin V-FITC/PI staining based flow cytometric analysis (reference value: 4.22 %); type: functional
MV4-11 [2] = experiment: Downregulation of beta-catenin expression level in human MV4-11 cells at 0.1 to 10 nM measured after 24 to 48 hrs by Western blot analysis; type: functional, cell-based; conditions: dose 0.1-10 nM, time 24-48 hrs
[3] = Toxicity in Balb/c nude mouse xenografted with human OCI-Ly10 cells assessed as effect on body weight at 30 mg/kg, po administered once daily for 18 days; type: organism-based; conditions: in vivo, 432 h, time 18 day
Kasumi 1 = experiment: Antiproliferative activity against human Kasumi 1 cells assessed as inhibition of cell growth incubated for 7 days by MTS reagent based assay; type: functional; conditions: Kasumi 1, 168 h
MV4-11 [4] = experiment: Downregulation of TTK protein expression in human MV4-11 cells by proteomic analysis; type: functional, cell-based
MV4-11 [5] = experiment: Induction of apoptosis in human MV4-11 cells assessed as late apoptotic cells at 1 nM incubated for 48 hrs by Annexin V-FITC/PI staining based flow cytometric analysis (reference value: 0.91 %); type: functional
[6] = target: T1, Protein cereblon/Bromodomain-containing protein 9 (Homo sapiens, UniProt Q9H8M2+Q96SW2); experiment: In vivo PROTAC activity at CRBN/BRD9 in Balb/c nude mouse xenografted with human MV4-11 cells assessed as induction of BRD9 degradation in tumor at 20 mg/kg, ip administered once daily for 20 days by Western blot analysis; type: functional, organism-based; conditions: time 20.0 day
T1 sequence (Q96SW2 whole entry, looked up): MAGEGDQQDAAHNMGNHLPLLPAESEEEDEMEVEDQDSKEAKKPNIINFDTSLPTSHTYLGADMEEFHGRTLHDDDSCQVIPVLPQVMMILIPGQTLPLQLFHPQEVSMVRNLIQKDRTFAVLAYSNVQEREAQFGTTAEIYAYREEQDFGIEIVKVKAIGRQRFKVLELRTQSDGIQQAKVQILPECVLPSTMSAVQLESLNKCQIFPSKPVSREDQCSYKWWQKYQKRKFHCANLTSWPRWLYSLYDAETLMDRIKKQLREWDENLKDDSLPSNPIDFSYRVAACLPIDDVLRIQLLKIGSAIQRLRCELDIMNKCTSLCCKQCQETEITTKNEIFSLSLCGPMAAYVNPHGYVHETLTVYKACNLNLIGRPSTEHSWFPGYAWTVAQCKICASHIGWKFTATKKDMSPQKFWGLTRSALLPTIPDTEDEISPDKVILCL
T1 sequence (Q9H8M2 whole entry, looked up): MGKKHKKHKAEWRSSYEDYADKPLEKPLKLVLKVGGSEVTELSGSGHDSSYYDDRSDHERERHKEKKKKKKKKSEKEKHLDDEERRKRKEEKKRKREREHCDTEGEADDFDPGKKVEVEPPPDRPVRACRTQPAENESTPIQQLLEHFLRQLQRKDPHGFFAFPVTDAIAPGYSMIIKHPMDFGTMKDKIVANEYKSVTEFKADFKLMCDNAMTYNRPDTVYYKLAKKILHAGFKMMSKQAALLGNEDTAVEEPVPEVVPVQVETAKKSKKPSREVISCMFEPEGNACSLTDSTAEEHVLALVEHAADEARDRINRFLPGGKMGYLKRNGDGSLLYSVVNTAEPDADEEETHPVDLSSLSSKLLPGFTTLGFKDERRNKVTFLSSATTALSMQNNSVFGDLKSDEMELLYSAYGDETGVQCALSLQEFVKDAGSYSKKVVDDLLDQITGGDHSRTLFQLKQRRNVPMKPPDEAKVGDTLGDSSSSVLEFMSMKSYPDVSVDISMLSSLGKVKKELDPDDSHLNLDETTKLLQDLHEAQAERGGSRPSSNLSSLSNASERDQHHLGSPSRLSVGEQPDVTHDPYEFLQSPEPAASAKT

MV4-11 [7] = experiment: Antitumor activity against human MV4-11 cells xenografted in Balb/c nude mouse assessed as relative tumor volume at 20 mg/kg, ip administered once daily for 20 days (reference value: 7.85 +/- 3.69); type: functional; conditions: time 20 day
[8] = Toxicity in Balb/c nude mouse xenografted with human MV4-11 cells assessed as behavioral abnormalities at 20 mg/kg, ip administered once a day for 20 days; type: organism-based; conditions: in vivo, 480 h, time 20 day
MV4-11 [9] = experiment: Antitumor activity against human MV4-11 cells xenografted in Balb/c nude mouse assessed as tumor growth inhibition at 20 mg/kg, ip administered once daily for 20 days relative to control; type: functional; conditions: MV4-11, 480 h, time 20 day, read-out: TGI
MV4-11 [10] = experiment: Induction of apoptosis in human MV4-11 cells assessed as late apoptotic cells at 10 nM incubated for 48 hrs by Annexin V-FITC/PI staining based flow cytometric analysis (reference value: 0.91 %); type: functional
MV4-11 [11] = experiment: Induction of GSPT1 degradation in human MV4-11 cells at 0.1 to 100 nM by Western blotting analysis; type: cell-based; conditions: dose 0.1-100 nM
MV4-11 [12] = experiment: Induction of apoptosis in human MV4-11 cells assessed as early apoptotic cells at 10 nM incubated for 48 hrs by Annexin V-FITC/PI staining based flow cytometric analysis (reference value: 4.22 %); type: functional
[13] = Cytotoxicity against PBMC cells (unknown origin) assessed as inhibition of cell growth at 5000 nM incubated for 7 days by MTS reagent based assay; type: toxicity; conditions: 168 h, 5 µM, time 7 day
U-937 = experiment: Antiproliferative activity against human U-937 cells assessed as inhibition of cell growth incubated for 7 days by MTS reagent based assay; type: functional; conditions: U-937, 168 h
[14] = target: T1, Protein cereblon/Bromodomain-containing protein 9; experiment: PROTAC activity at CRBN/BRD9 in human MV4-11 cells assessed as induction of BRD9 degradation at 0.33 nM measured after 4 hrs by Western blot analysis relative to control; type: cell-based
MV4-11 [15] = experiment: Induction of BRD7 degradation in human MV4-11 cells at 100 nM by Western blot analysis; type: cell-based
MV4-11 [16] = experiment: Downregulation of KHDC4 protein expression in human MV4-11 cells by proteomic analysis; type: functional, cell-based
MV4-11 [17] = experiment: Induction of apoptosis in human MV4-11 cells assessed as early apoptotic cells at 0.1 nM incubated for 48 hrs by Annexin V-FITC/PI staining based flow cytometric analysis (reference value: 4.22 %); type: functional
[18] = target: T1, Protein cereblon/Bromodomain-containing protein 9; experiment: PROTAC activity at CRBN/BRD9 in human MV4-11 cells assessed as induction of BRD9 degradation at 1 nM by Western blot analysis relative to control; type: cell-based
MV4-11 [19] = experiment: Downregulation of beta-catenin mRNA expression level in human MV4-11 cells at 0.1 to 10 nM measured after 24 to 48 hrs by Western blot analysis; type: functional, cell-based; conditions: dose 0.1-10 nM, time 24-48 hrs
MV4-11 [20] = experiment: Downregulation of AXIN2 expression level in human MV4-11 cells at 0.1 to 10 nM measured after 24 to 48 hrs by Western blot analysis; type: functional, cell-based; conditions: dose 0.1-10 nM, time 24-48 hrs
[21] = target: T1, Protein cereblon/Bromodomain-containing protein 9; experiment: PROTAC activity at CRBN/BRD9 in human MV4-11 cells assessed as induction of BRD9 degradation at 0.33 nM in presence of MG132 by Western blot analysis; type: cell-based
Mus musculus = experiment: Upregulation of C-myc expression in Balb/c nude mouse tumor xenografted with human MV4-11 cells at 20 mg/kg, ip administered once daily for 20 days by Western blot analysis; type: functional, organism-based; conditions: time 20.0 day
[22] = target: T1, Protein cereblon/Bromodomain-containing protein 9; experiment: PROTAC activity at CRBN/BRD9 in human MV4-11 cells assessed as induction of BRD9 degradation at 100 nM by Western blot analysis relative to control; type: cell-based
MV4-11 [23] = experiment: Induction of apoptosis in human MV4-11 cells assessed as late apoptotic cells at 0.01 nM incubated for 48 hrs by Annexin V-FITC/PI staining based flow cytometric analysis (reference value: 0.91 %); type: functional
MV4-11 [24] = experiment: Induction of apoptosis in human MV4-11 cells assessed as viable cells at 0.01 nM incubated for 48 hrs by Annexin V-FITC/PI staining based flow cytometric analysis (reference value: 94.80 %); type: functional; conditions: read-out: Activity
MV4-11 [25] = experiment: Downregulation of CHEK2 protein expression in human MV4-11 cells by proteomic analysis; type: functional, cell-based
[26] = target: T1, Protein cereblon/Bromodomain-containing protein 9; experiment: PROTAC activity at CRBN/BRD9 in human MV4-11 cells assessed as induction of BRD9 degradation at 0.33 nM in presence of MLN4924 by Western blot analysis; type: cell-based
[27] = target: T1, Protein cereblon/Bromodomain-containing protein 9; experiment: PROTAC activity at CRBN/BRD9 in human MV4-11 cells assessed as induction of BRD9 degradation at 0.33 nM in presence of N-(1,1-dioxidotetrahydro-2H-thiopyran-4-yl)-5-ethyl-4-oxo-7-(3-(trifluoromethyl)phenyl)-4,5-dihydrothieno[3,2-c]pyridine-2-carboximidamide by Western blot analysis; type: cell-based
MV4-11 [28] = experiment: Antiproliferative activity against CRBN knockout human MV4-11 cells assessed as inhibition of cell growth incubated for 7 days by MTS reagent based assay; type: functional; conditions: MV4-11, 168 h
MV4-11 [29] = experiment: Induction of apoptosis in human MV4-11 cells assessed as early apoptotic cells at 0.01 nM incubated for 48 hrs by Annexin V-FITC/PI staining based flow cytometric analysis (reference value: 4.22 %); type: functional
MV4-11 [30] = experiment: Antitumor activity against human MV4-11 cells xenografted in Balb/c nude mouse assessed as tumor weight at 20 mg/kg, ip administered once daily for 20 days (reference value: 1.30 +/- 0.51 g); type: functional; conditions: time 20 day
SU-DHL-2 = experiment: Antiproliferative activity against human SU-DHL-2 cells assessed as inhibition of cell growth incubated for 7 days by MTS reagent based assay; type: functional; conditions: SU-DHL-2, 168 h

COc1cc(-c2cn(C)c(=O)c3ccccc23)cc(OC)c1CN1CCC(CN2CCC(c3ccc4c5c(cccc35)C(=O)N4C3CCC(=O)NC3=O)CC2)CC1 (centres undefined)
Activity (MV4-11 [1]): 13.79% | Activity (MV4-11 [2]): Active | Activity [3]: Non-toxic | IC50 (Kasumi 1): 1.13 nM | Activity (MV4-11 [4]): Active | Activity (MV4-11 [5]): 5.74% | Activity [6]: Active | Activity (MV4-11 [7]): 4.99 | Activity [8]: Non-toxic | inhibition in vivo at 20 mg/kg (MV4-11 [9]): 30.9% | Activity (MV4-11 [10]): 8.01% | Activity (MV4-11 [11]): inactive | Activity (MV4-11 [12]): 16.97% | Activity [13]: Toxic | IC50 (U-937): 1060 nM | Activity [14]: 92% | Activity (MV4-11 [15]): inactive | Activity (MV4-11 [16]): Active | Activity (MV4-11 [17]): 9.2% | Activity [18]: 92.5% | Activity (MV4-11 [19]): Active | Activity (MV4-11 [20]): Active | Activity [21]: Not active; Compound Functioned Through Ubiquitin-Proteasome System | Activity (Mus musculus): Active | Activity [22]: 95% | Activity (MV4-11 [23]): 1.63% | viability at 10 pM (MV4-11 [24]): 92% | Activity (MV4-11 [25]): Active | Activity [26]: Not active; Compound Functioned Through Ubiquitin-Proteasome System | Activity [27]: inactive | IC50 (MV4-11 [28]): > 5000 nM | Activity (MV4-11 [29]): 6.35% | Activity (MV4-11 [30]): 0.9 g | IC50 (SU-DHL-2): 38.6 nM
